Measured values taken from ChEMBL document CHEMBL6134844, “Development of Next-Generation Antimalarial Acridones with Radical Cure Potential” (J Med Chem, 2025).

Assays:
[1] = mouse, microsomes, 1 h
Plasmodium cynomolgi [2] = assay: (§1) Antiplasmodial activity against hypnozoite Plasmodium cynomolgi B strain infected in Macaca mulatta hepatocytes incubated with sporozoite containing salivary gland homogenate obtained from dissected Anopheles dirus mosquitoes (infected with Plasmodium cynomolgi B strain) treatment started on day 4 post infection and continued daily for 4 days into fresh changed media until day 8 assessed as Liver stage (LS) activity by measuring radical cure mode by immunofluorescent staining analysis; type: functional, organism-based; details: Hepatocyte
Hepatocyte = assay: Cytotoxicity against Macaca mulatta hepatocytes assessed as cell viability measured after 48 hrs by MTT assay; type: toxicity, cell-based; details: rhesus monkey, 48 h
Plasmodium cynomolgi [3] = assay: as §1, with “schizont” for “hypnozoite”; type: functional, organism-based; details: Hepatocyte
[4] = Toxicity in CF1 mouse infected with asexual blood-stage (ABS) Plasmodium yoelii MRA-428 assessed as hunching at 0.3 to 30 mg/kg, po treated 24 hrs post infection measured after 4 days; type: organism-based; details: in vivo, 96 h, dose 0.3-30 mg/kg, time 4 day
Plasmodium falciparum [5] = assay: Antiplasmodial activity against asexual blood-stage (ABS) MDR Plasmodium falciparum Dd2 infected in human erythrocytes assessed as reduction in fluorescence measured after 72 hrs by Malaria SYBR Green I-based Fluorescence (MSF) assay; type: functional, organism-based; details: Dd2, Erythrocyte
[6] = Toxicity in CF1 mouse infected with asexual blood-stage (ABS) Plasmodium yoelii MRA-428 assessed as ruffled hair at 0.3 to 30 mg/kg, po treated 24 hrs post infection measured after 4 days; type: organism-based; details: in vivo, 96 h, dose 0.3-30 mg/kg, time 4 day
[7] = Toxicity in CF1 mouse infected with asexual blood-stage (ABS) Plasmodium yoelii MRA-428 assessed as hyperactivity at 0.3 to 30 mg/kg, po treated 24 hrs post infection measured after 4 days; type: organism-based; details: in vivo, 96 h, dose 0.3-30 mg/kg, time 4 day
Plasmodium cynomolgi [8] = assay: as §1, with “schizont” for “hypnozoite”, “prophylactic” for “radical cure”; type: functional, organism-based; details: Hepatocyte
Plasmodium falciparum [9] = assay: Antiplasmodial activity against asexual blood-stage (ABS) CQ-sensitive Plasmodium falciparum D6 infected in human erythrocytes assessed as reduction in fluorescence measured after 72 hrs by Malaria SYBR Green I-based Fluorescence (MSF) assay; type: functional, organism-based; details: D6, Erythrocyte
Plasmodium falciparum [10] = assay: Antiplasmodial activity against asexual blood-stage (ABS) ATV-resistant clinical isolate Plasmodium falciparum Tm90-C2B infected in human erythrocytes assessed as reduction in fluorescence measured after 72 hrs by Malaria SYBR Green I-based Fluorescence (MSF) assay; type: functional, organism-based; details: Erythrocyte
[11] = Toxicity in CF1 mouse infected with asexual blood-stage (ABS) Plasmodium yoelii MRA-428 assessed as weight loss at 0.3 to 30 mg/kg, po treated 24 hrs post infection measured after 4 days; type: organism-based; details: in vivo, 96 h, dose 0.3-30 mg/kg, time 4 day
Plasmodium cynomolgi [12] = assay: as §1, with “prophylactic” for “radical cure”; type: functional, organism-based; details: Hepatocyte
[13] = Toxicity in CF1 mouse infected with asexual blood-stage (ABS) Plasmodium yoelii MRA-428 assessed as lethargy at 0.3 to 30 mg/kg, po treated 24 hrs post infection measured after 4 days; type: organism-based; details: in vivo, 96 h, dose 0.3-30 mg/kg, time 4 day
[14] = as §1, with “Selectivity index, ratio of CC50 for Macaca mulatta hepatocytes to IC50 for antiplasmodial” for “Antiplasmodial”, “prophylactic” for “radical cure”; type: toxicity, cell-based; details: rhesus monkey, read-out: Selectivity Index
[15] = as §1, with “Selectivity index, ratio of CC50 for Macaca mulatta hepatocytes to IC50 for antiplasmodial” for “Antiplasmodial”; type: toxicity, cell-based; details: rhesus monkey, read-out: Selectivity Index
[16] = as §1, with “Selectivity index, ratio of CC50 for Macaca mulatta hepatocytes to IC50 for antiplasmodial” for “Antiplasmodial”, “schizont” for “hypnozoite”, “prophylactic” for “radical cure”; type: toxicity, cell-based; details: rhesus monkey, read-out: Selectivity Index
HepG2 = assay: Cytotoxicity against human HepG2 cells assessed as cell viability measured after 48 hrs by MTT assay; type: functional, cell-based; details: HepG2, 48 h
[17] = as §1, with “Selectivity index, ratio of CC50 for Macaca mulatta hepatocytes to IC50 for antiplasmodial” for “Antiplasmodial”, “schizont” for “hypnozoite”; type: toxicity, cell-based; details: rhesus monkey, read-out: Selectivity Index
[18] = human, microsomes, 1 h

Structure (SMILES) | CLH [1] | IC50 (Plasmodium cynomolgi [2]) | CC50 (Hepatocyte) | IC50 (Plasmodium cynomolgi [3]) | Activity [4] | IC50 (Plasmodium falciparum [5]) | Activity [6] | Activity [7] | IC50 (Plasmodium cynomolgi [8]) | IC50 (Plasmodium falciparum [9]) | IC50 (Plasmodium falciparum [10]) | Activity [11] | IC50 (Plasmodium cynomolgi [12]) | Activity [13] | selectivity ratio at 96 h [14] | selectivity ratio at 96 h [15] | selectivity ratio at 96 h [16] | IC50 (HepG2) | selectivity ratio at 96 h [17] | t1/2 [18]
CCCN(CCC)CCNc1ccc2c(=O)c3c([nH]c2c1)CCCC3 | > 500 µL/min/mg | > 20 µM | > 20 µM | > 20 µM | Non-toxic | > 2500 nM | Non-toxic | Non-toxic | > 20000 nM | > 2500 nM | > 2500 nM | Non-toxic | > 20000 nM | Non-toxic | – | – | – | – | – | –
CN1CCC(Oc2ccc3c(=O)c4c(F)cc(Cl)cc4[nH]c3c2)CC1 | 209.5 µL/min/mg | 18.2 µM | > 20 µM | 9.88 µM | – | 23.1 nM | – | – | 540 nM | 11.2 nM | > 2500 nM | – | 5700 nM | – | > 3.51 | > 1.1 | > 37 | 55.6 µM | > 2.02 | –
O=c1c2ccc(Oc3ccc(OC(F)(F)F)cc3)cc2[nH]c2cc(Cl)c(F)cc12 | 177 µL/min/mg | > 20 µM | > 20 µM | > 20 µM | – | 11.1 nM | – | – | 270 nM | 14.4 nM | 1520 nM | – | 1290 nM | – | > 15.5 | – | > 74.1 | > 200 µM | – | > 60 min
O=c1c2ccc(OCc3cccc(OC(F)(F)F)c3)cc2[nH]c2ccc(Cl)c(F)c12 | 21.8 µL/min/mg | 1.94 µM | > 20 µM | 3.26 µM | – | 0.0004 nM | – | – | 60 nM | 0.00029 nM | 181 nM | – | 240 nM | – | > 83.3 | > 10.3 | > 333 | > 200 µM | > 6.13 | > 60 min
O=c1c2ccc(Oc3ccccc3OC(F)(F)F)cc2[nH]c2cc(Cl)cc(F)c12 | 72.3 µL/min/mg | 4.56 µM | 9.21 µM | 4.21 µM | – | 0.005 nM | – | – | 80 nM | 0.005 nM | 28.8 nM | – | 1370 nM | – | 6.72 | 2.02 | 115 | > 200 µM | 2.19 | –
O=c1c2c(F)cc(Cl)cc2[nH]c2cccc(Oc3ccc(OC(F)(F)F)cc3)c12 | 45.4 µL/min/mg | > 20 µM | > 20 µM | 16.6 µM | – | 188 nM | – | – | 7370 nM | 87.8 nM | > 2500 nM | – | > 20000 nM | – | – | – | > 2.71 | 189 µM | > 1.2 | > 60 min
CC(C)(C)OC(=O)N1CCC(Oc2ccc3c(=O)c4c(Cl)cc(F)cc4[nH]c3c2)CC1 | < 3.125 µL/min/mg | 4.44 µM | 4.73 µM | 3.94 µM | – | 45.7 nM | – | – | 150 nM | 36.7 nM | > 2500 nM | – | 1370 nM | – | 3.45 | 1.06 | 31.5 | 90.2 µM | 1.2 | > 60 min
O=c1c2ccc(Oc3ccc(OC(F)(F)F)cc3)cc2[nH]c2ccc(Cl)c(F)c12 | < 3.125 µL/min/mg | 4.12 µM | 4.58 µM | 2.11 µM | – | 0.2 nM | – | – | 50 nM | 0.191 nM | 277 nM | – | 400 nM | – | 11.4 | 1.11 | 91.6 | > 200 µM | 2.17 | > 60 min
COc1ccc(Oc2ccc3c(=O)c4c(F)cc(Cl)cc4[nH]c3c2)cc1 | < 3.125 µL/min/mg | 6.02 µM | 10.8 µM | 0.94 µM | – | 2.9e-05 nM | – | – | 490 nM | 5.9e-05 nM | 18.2 nM | – | 4490 nM | – | 2.4 | 1.79 | 22 | > 200 µM | 11.5 | > 60 min
O=c1c2cccc(Oc3ccc(OC(F)(F)F)cc3)c2[nH]c2cc(Cl)cc(F)c12 | 25.5 µL/min/mg | > 20 µM | > 20 µM | > 20 µM | – | 188 nM | – | – | 3330 nM | 383 nM | > 2500 nM | – | 13600 nM | – | > 1.47 | – | > 6.01 | 92.9 µM | – | > 60 min
CO[C@@H]1[C@@H](OC)[C@H](C)[C@@](O)(CC(=O)O)O[C@H]1[C@H](C)[C@H]1O[C@@]2(CC[C@@](C)([C@H]3CC[C@@](C)([C@@H]4O[C@@H]([C@H]5O[C@](C)(O)[C@H](C)C[C@@H]5C)C[C@@H]4O[C@@H]4C[C@H](OC)[C@@H](OC)[C@H](C)O4)O3)O2)C[C@H](O)[C@H]1C [MADURAMICIN ACID] | – | 0.03 µM | 2.36 µM | 0.04 µM | – | – | – | – | 30 nM | – | – | – | 10 nM | – | 236 | 78.7 | 78.7 | – | 59 | –
O=c1c2ccccc2[nH]c2cc(Oc3ccc(OC(F)(F)F)cc3)ccc12 | 11.5 µL/min/mg | 3.02 µM | 3.16 µM | 1.84 µM | – | 0.03 nM | – | – | 540 nM | 0.019 nM | 3.3 nM | – | 1570 nM | – | 2.01 | 1.05 | 5.85 | > 200 µM | 1.72 | –
O=c1c2ccc(OC3CCNCC3)cc2[nH]c2cc(F)cc(Cl)c12 | 72.1 µL/min/mg | > 20 µM | > 20 µM | 13.8 µM | – | 31.4 nM | – | – | 4060 nM | 27.2 nM | > 2500 nM | – | 5950 nM | – | > 3.36 | – | > 4.92 | 48.9 µM | > 1.45 | > 60 min
CN(C)CCOc1ccc2c(=O)c3c([nH]c2c1)CCCC3 | > 500 µL/min/mg | > 20 µM | > 20 µM | > 20 µM | Non-toxic | > 2500 nM | Non-toxic | Non-toxic | > 20000 nM | > 2500 nM | > 2500 nM | Non-toxic | > 20000 nM | Non-toxic | – | – | – | – | – | –
O=c1c2ccc(OCc3cccc(C(F)(F)F)c3)cc2[nH]c2ccc(Cl)c(F)c12 | 15.6 µL/min/mg | 2.19 µM | > 20 µM | 1.53 µM | – | 0.0004 nM | – | – | 80 nM | 0.0003 nM | 118 nM | – | 400 nM | – | > 50 | > 9.13 | > 250 | > 200 µM | > 13.1 | > 60 min
O=c1c2ccc(OC3CCNCC3)cc2[nH]c2cc(Cl)cc(F)c12 | – | – | – | – | – | 121 nM | – | – | – | 662 nM | > 2500 nM | – | – | – | – | – | – | 38.2 µM | – | –
